Reference: PubChem BioAssay (NCI)
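Tested at 5 concentrations; 48 h exposure; 96-well plates; endpoints linearly interpolated, else capped at highest concentration. GI50 = concentration required for 50% inhibition of growth. Definition used: TGI = concentration required for complete inhibition of growth.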

Experiments:
Assay in all cases: DTP human tumour cell line panel, 48 h
HCT-116 colon = system: HCT-116 colon
COLO 205 colon = system: COLO 205 colon
EKVX NSCLC = system: EKVX NSCLC
OVCAR-3 ovarian = system: OVCAR-3 ovarian
HT29 colon = system: HT29 colon
A498 renal = system: A498 renal
U251 CNS = system: U251 CNS
NCI-H23 lung = system: NCI-H23 lung
NCI/ADR-RES ovarian = system: NCI/ADR-RES ovarian
SN12C renal = system: SN12C renal
SK-MEL-5 melanoma = system: SK-MEL-5 melanoma
TK-10 renal = system: TK-10 renal
SW-620 colon = system: SW-620 colon
MOLT-4 leukemia = system: MOLT-4 leukemia
DU-145 prostate = system: DU-145 prostate
UACC-257 melanoma = system: UACC-257 melanoma
SNB-75 CNS = system: SNB-75 CNS
HS 578T breast = system: HS 578T breast
HCC-2998 colon = system: HCC-2998 colon
IGROV1 ovarian = system: IGROV1 ovarian
NCI-H460 lung = system: NCI-H460 lung
UACC-62 melanoma = system: UACC-62 melanoma
PC-3 prostate = system: PC-3 prostate
NCI-H226 lung = system: NCI-H226 lung
RXF 393 renal = system: RXF 393 renal
HOP-92 NSCLC = system: HOP-92 NSCLC
HOP-62 NSCLC = system: HOP-62 NSCLC
MALME-3M melanoma = system: MALME-3M melanoma
SF-295 CNS = system: SF-295 CNS
MDA-MB-231 breast = system: MDA-MB-231 breast
HCT-15 colon = system: HCT-15 colon
SF-539 CNS = system: SF-539 CNS
MCF7 breast = system: MCF7 breast
OVCAR-5 ovarian = system: OVCAR-5 ovarian
SK-MEL-28 melanoma = system: SK-MEL-28 melanoma
SF-268 CNS = system: SF-268 CNS
KM12 colon = system: KM12 colon
A549 NSCLC = system: A549 NSCLC
UO-31 renal = system: UO-31 renal
SK-MEL-2 melanoma = system: SK-MEL-2 melanoma
ACHN renal = system: ACHN renal
LOX IMVI melanoma = system: LOX IMVI melanoma
K-562 leukemia = system: K-562 leukemia
OVCAR-4 ovarian = system: OVCAR-4 ovarian
OVCAR-8 ovarian = system: OVCAR-8 ovarian
BT-549 breast = system: BT-549 breast
CAKI-1 renal = system: CAKI-1 renal
NCI-H522 lung = system: NCI-H522 lung
RPMI-8226 leukemia = system: RPMI-8226 leukemia
M14 melanoma = system: M14 melanoma
SR leukemia = system: SR leukemia
SNB-19 CNS = system: SNB-19 CNS
786-0 renal = system: 786-0 renal
CCRF-CEM leukemia = system: CCRF-CEM leukemia
MDA-MB-435 = system: MDA-MB-435
T-47D breast = system: T-47D breast

OCCN(CCO)c1ncnc2c1ncn2Cc1ccc(CCl)cc1
GI50 (HCT-116 colon): 14 µM | TGI (HCT-116 colon): 33.8 µM | GI50 (COLO 205 colon): 18.2 µM | TGI (COLO 205 colon): 46.8 µM | GI50 (EKVX NSCLC): 16.6 µM | TGI (EKVX NSCLC): 31.8 µM | GI50 (OVCAR-3 ovarian): 19.4 µM | TGI (OVCAR-3 ovarian): 34.9 µM | GI50 (HT29 colon): 32.5 µM | TGI (HT29 colon): > 100 µM | GI50 (A498 renal): 14.2 µM | TGI (A498 renal): 28.1 µM | GI50 (U251 CNS): 15.7 µM | TGI (U251 CNS): 29.8 µM | GI50 (NCI-H23 lung): 18.3 µM | TGI (NCI-H23 lung): 37.1 µM | GI50 (NCI/ADR-RES ovarian): 24.7 µM | TGI (NCI/ADR-RES ovarian): 74.1 µM | GI50 (SN12C renal): 21 µM | TGI (SN12C renal): 45.8 µM | GI50 (SK-MEL-5 melanoma): 10.9 µM | TGI (SK-MEL-5 melanoma): 23.3 µM | GI50 (TK-10 renal): 17.1 µM | TGI (TK-10 renal): 33.4 µM | GI50 (SW-620 colon): 10.8 µM | TGI (SW-620 colon): 27.3 µM | GI50 (MOLT-4 leukemia): 8.54 µM | TGI (MOLT-4 leukemia): 52.4 µM | GI50 (DU-145 prostate): 4.42 µM | TGI (DU-145 prostate): 16.1 µM | GI50 (UACC-257 melanoma): 13.8 µM | TGI (UACC-257 melanoma): 28.9 µM | GI50 (SNB-75 CNS): 20.3 µM | TGI (SNB-75 CNS): 40.9 µM | GI50 (HS 578T breast): 16 µM | TGI (HS 578T breast): 36.9 µM | GI50 (HCC-2998 colon): 15.4 µM | TGI (HCC-2998 colon): 28.9 µM | GI50 (IGROV1 ovarian): 19.7 µM | TGI (IGROV1 ovarian): 40.3 µM | GI50 (NCI-H460 lung): 14.2 µM | TGI (NCI-H460 lung): 30.8 µM | GI50 (UACC-62 melanoma): 18 µM | TGI (UACC-62 melanoma): 33.5 µM | GI50 (PC-3 prostate): 14 µM | TGI (PC-3 prostate): 33.7 µM | GI50 (NCI-H226 lung): 23.4 µM | TGI (NCI-H226 lung): 58 µM | GI50 (RXF 393 renal): 12 µM | TGI (RXF 393 renal): 37.1 µM | GI50 (HOP-92 NSCLC): 16.4 µM | TGI (HOP-92 NSCLC): 31.7 µM | GI50 (HOP-62 NSCLC): 23.8 µM | TGI (HOP-62 NSCLC): 41.1 µM | GI50 (MALME-3M melanoma): 12.8 µM | TGI (MALME-3M melanoma): 27.3 µM | GI50 (SF-295 CNS): 17 µM | TGI (SF-295 CNS): 33.6 µM | GI50 (MDA-MB-231 breast): 18 µM | TGI (MDA-MB-231 breast): 35.5 µM | GI50 (HCT-15 colon): 18.4 µM | TGI (HCT-15 colon): 39.9 µM | GI50 (SF-539 CNS): 10.3 µM | TGI (SF-539 CNS): 24.2 µM | GI50 (MCF7 breast): 6.3 µM | TGI (MCF7 breast): 32.5 µM | GI50 (OVCAR-5 ovarian): 14.1 µM | TGI (OVCAR-5 ovarian): 27.8 µM | GI50 (SK-MEL-28 melanoma): 23.8 µM | TGI (SK-MEL-28 melanoma): 63.8 µM | GI50 (SF-268 CNS): 19.8 µM | TGI (SF-268 CNS): 49.8 µM | GI50 (KM12 colon): 14.3 µM | TGI (KM12 colon): 29.2 µM | GI50 (A549 NSCLC): 18.3 µM | TGI (A549 NSCLC): 53.7 µM | GI50 (UO-31 renal): 14.9 µM | TGI (UO-31 renal): 31 µM | GI50 (SK-MEL-2 melanoma): 16.5 µM | TGI (SK-MEL-2 melanoma): 41.1 µM | GI50 (ACHN renal): 14.9 µM | TGI (ACHN renal): 28.5 µM | GI50 (LOX IMVI melanoma): 16.4 µM | TGI (LOX IMVI melanoma): 30.9 µM | GI50 (K-562 leukemia): 17.7 µM | TGI (K-562 leukemia): > 100 µM | GI50 (OVCAR-4 ovarian): 18.8 µM | TGI (OVCAR-4 ovarian): 35.4 µM | GI50 (OVCAR-8 ovarian): 15.4 µM | TGI (OVCAR-8 ovarian): 31.7 µM | GI50 (BT-549 breast): 11.7 µM | TGI (BT-549 breast): 24.6 µM | GI50 (CAKI-1 renal): 14.5 µM | TGI (CAKI-1 renal): 30 µM | GI50 (NCI-H522 lung): 18.5 µM | TGI (NCI-H522 lung): 46.6 µM | GI50 (RPMI-8226 leukemia): 17.2 µM | TGI (RPMI-8226 leukemia): > 100 µM | GI50 (M14 melanoma): 13.8 µM | TGI (M14 melanoma): 28.4 µM | GI50 (SR leukemia): 6.94 µM | TGI (SR leukemia): > 100 µM | GI50 (SNB-19 CNS): 19.9 µM | TGI (SNB-19 CNS): 41.2 µM | GI50 (786-0 renal): 20.4 µM | TGI (786-0 renal): 37.8 µM | GI50 (CCRF-CEM leukemia): 11 µM | TGI (CCRF-CEM leukemia): 47.1 µM | GI50 (MDA-MB-435): 14.5 µM | TGI (MDA-MB-435): 29.3 µM | GI50 (T-47D breast): 19.4 µM | TGI (T-47D breast): 36.5 µM
